Measurements from patent publication US9933367B2, “Method to identify and isolate pluripotent stem cells using endogenous blue fluorescence” (NATIONAL CENTRE FOR BIOLOGICAL SCIENCES, priority 2012, dated 2018).
“Also recorded” adds a separate entry of the source.

Legend:
HPSCs = test: Supplementing HPSC culture media with retinyl palmitate or retinol; blue fluorescence of lipid bodies; type: cell-based, human
Text: All non-confocal epifluorescence images are obtained with a Nikon Eclipse TE2000-E-PFS (Japan) microscope with a Photometrix Cascade II 512 EM-CCD camera (Roper Scientific, USA) and Image Pro-Plus AMS software (Media Cybernetics, USA). The Nikon objectives used are 60×/NA1.4 oil immersions and 10×/NA 0.3 for all experiments. Fluorescence is visualized using band pass filters (Chroma Technology, USA). The filters used are Blue (Exciter—350 nm/50, Dichoric—400 nm long pass, Emitter—460 nm/50), Green (Exciter—500 nm/20, Dichoric—535 nm/30, Emitter—515 long pass) and Red (Exciter—450 nm/30, Dichoric—620 nm/0, Emitter—570 long pass). Confocal images are acquired using a Zeiss LSM 510 Meta Confocal set up with a 63× objective and a 405 laser (excitation—405 nm, emission—about 420 nm to about 490 nm). […] For quantitative analysis and depiction of images for direct comparison, for e.g. between mouse ES cells and human ES cells, all the images presented have the same intensity scale bounded by the adjusted maximum value of the HuES cell image. Scatter plot and linear fit analyses of pluripotency marker expression (OCT4, SOX2 and Nanog) and blue fluorescence is performed with fluorescence intensity values of individual pixels using the ‘plot profile’ application from ImageJ. […] The increase in fluorescence intensities is also found to be confined to the lipid bodies.

HuES cells = HuES cells in retinol-free E8 media supplemented with retinol; fluorescent lipid bodies; type: cell-based, human; details: HuES cells cultured in E8 media (lacks retinol), retinol 10 μM added
Description: HuES cells cultured in E8 media show a rapid decrease in lipid bodies along with associated fluorescence in 24 hours, and the lipid bodies are completely absent by 72 hours (FIG. 10). […] A possible reason could be the differential expression of proteins involved in retinoid uptake and metabolism between the two states/cell types.

[1] = tested on: mouse embryonic stem cells; test: Mouse ES cells grown in media with additional retinol; blue fluorescence and lipid bodies; type: cell-based; details: 20% KOSR media with retinol, 48 hours
Text: The increase in fluorescence intensities is also found to be confined to the lipid bodies.

Row | SMILES | mean blue fluorescence intensity in the lipid bodies (HPSCs; HPSCs on MEF feeder cells, typical media with 20% KOSR, supplemented at 2-10 μM, after 24 hours) | blue fluorescence in the HPSCs emanating from the lipid bodies (HPSCs; culture media supplemented with retinol) | fluorescent lipid bodies after addition to E8 cultures (HuES cells) | retinoid-associated (blue) fluorescence [1]
1 | CCCCCCCCCCCCCCCC(=O)OC/C=C(C)/C=C/C=C(C)/C=C/C1=C(C)CCCC1(C)C [retinyl palmitate] | dose-dependent saturable increase; also recorded: dose dependent increase in blue fluorescence | – | – | –
2 | CC1=C(/C=C/C(C)=C/C=C/C(C)=C/CO)C(C)(C)CCC1 [retinol] | – | dose-dependent increase | re-appearance of fluorescent lipid bodies; also recorded: regain blue fluorescent lipid bodies in 48 hours | practically no increase; also recorded: do not show any increase in blue fluorescence
